Measurements reported in ChEMBL document CHEMBL1201862, “PubChem BioAssay data set” (2004).
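Compound exposure: 48 hours, 5 concentrations, 96-well plates. At the GI50, growth is halved.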 Activity calls are given as the source filed them. No stated cut-off is given here; in the data, active = GI50 up to about 1.1 µM and inactive = higher.

Tests used:
Test in all cases: NCI anticancer screen, dose series, 48 h
M14 = tested on: M14
OVCAR-8 = tested on: OVCAR-8
MDA-MB-231 = tested on: MDA-MB-231
EKVX = tested on: EKVX
NCI-H522 = tested on: NCI-H522
CAKI-1 = tested on: CAKI-1
NCI/ADR-RES = tested on: NCI/ADR-RES
SR = tested on: SR
HCC 2998 = tested on: HCC 2998
HOP-62 = tested on: HOP-62
NCI-H23 = tested on: NCI-H23
K562 = tested on: K562
SF-539 = tested on: SF-539
Malme-3M = tested on: Malme-3M
OVCAR-3 = tested on: OVCAR-3
A498 = tested on: A498
SK-OV-3 = tested on: SK-OV-3
MCF7 = tested on: MCF7
OVCAR-4 = tested on: OVCAR-4
786-0 = tested on: 786-0
MDA-MB-435 = tested on: MDA-MB-435
SK-MEL-2 = tested on: SK-MEL-2
SK-MEL-5 = tested on: SK-MEL-5
U-251 = tested on: U-251
SN12C = tested on: SN12C
COLO 205 = tested on: COLO 205
HOP-92 = tested on: HOP-92
ACHN = tested on: ACHN
UO-31 = tested on: UO-31
SK-MEL-28 = tested on: SK-MEL-28
DU-145 = tested on: DU-145
HCT-15 = tested on: HCT-15
RXF 393 = tested on: RXF 393
SF-295 = tested on: SF-295
TK-10 = tested on: TK-10
MDA-N = tested on: MDA-N
KM12 = tested on: KM12
CCRF-CEM = tested on: CCRF-CEM
HT-29 = tested on: HT-29
NCI-H226 = tested on: NCI-H226
OVCAR-5 = tested on: OVCAR-5
Hs-578T = tested on: Hs-578T
SNB-75 = tested on: SNB-75
T47D = tested on: T47D
UACC-257 = tested on: UACC-257
SNB-19 = tested on: SNB-19
HL-60 = tested on: HL-60
RPMI-8226 = tested on: RPMI-8226
NCI-H460 = tested on: NCI-H460
SW-620 = tested on: SW-620
IGROV-1 = tested on: IGROV-1
MOLT-4 = tested on: MOLT-4
SF-268 = tested on: SF-268
PC-3 = tested on: PC-3
LOX IMVI = tested on: LOX IMVI

Measured: GI50

Cn1c2c(c3ccccc31)CCN1C(=O)CCC21 (stereo not given)
> 10 µM: HCT-15
inactive: M14 > 10 µM | OVCAR-8 > 10 µM | MDA-MB-231 > 10 µM | EKVX > 10 µM | NCI-H522 > 10 µM | CAKI-1 > 10 µM | NCI/ADR-RES > 10 µM | SR > 10 µM | HCC 2998 > 10 µM | HOP-62 > 10 µM | NCI-H23 > 10 µM | K562 > 10 µM | SF-539 > 10 µM | Malme-3M > 10 µM | OVCAR-3 > 10 µM | A498 > 10 µM | SK-OV-3 > 10 µM | MCF7 > 10 µM | OVCAR-4 > 10 µM | 786-0 > 10 µM | MDA-MB-435 > 10 µM | SK-MEL-2 > 10 µM | SK-MEL-5 > 10 µM | U-251 > 10 µM | SN12C > 10 µM | COLO 205 > 10 µM | HOP-92 > 10 µM | ACHN > 10 µM | UO-31 > 10 µM | SK-MEL-28 > 10 µM | DU-145 > 10 µM | RXF 393 > 10 µM | SF-295 > 10 µM | TK-10 > 10 µM | MDA-N > 10 µM | KM12 > 10 µM | CCRF-CEM > 10 µM | HT-29 > 10 µM | NCI-H226 > 10 µM | OVCAR-5 > 10 µM | Hs-578T > 10 µM | SNB-75 > 10 µM | T47D > 10 µM | UACC-257 > 10 µM | SNB-19 > 10 µM | HL-60 > 10 µM | RPMI-8226 > 10 µM | NCI-H460 > 10 µM | SW-620 > 10 µM | IGROV-1 > 10 µM | MOLT-4 > 10 µM | SF-268 > 10 µM | PC-3 > 10 µM | LOX IMVI > 10 µM
